Measurements as given in article PMC6005341, “Identification of “sarsasapogenin-aglyconed” timosaponins as novel Aβ-lowering modulators of amyloid precursor protein processing” (Chemical Science, 2016).

System: γ-secretase-mediated cleavage of Notch1
Test: Notch cleavage by γ-secretase in N2A-APPswe cells transfected with NotchΔE (immunoblot)
Format: cell-based
Conditions: 18 h
Experimental: rabbit antibody (Millipore). The immunoreactivities were detected using enhanced chemiluminescence reagents (GE Health care).
For examination of notch cleavage by γ-secretase, N2A-APPswe cells were transfected with myc-tagged NotchΔE construct (pSC2 EMV-6MT, provided by Prof. Raphael Kopan, Washington University, St. Louis, MO) using Fugene HD (Roche). Cells were then treated with timosaponins for 18 h and the expression of NotchΔE and NICD were examined by immunoblot analysis using myc-tagged antibodies.
Aβ ELISA: Aβ concentrations in conditioned medium were assayed using ELISA kits for human Aβ40, human Aβ42 (ultrasensitive) (Invitrogen), human Aβ38 (MyBioSource) (in N2A-APPswe cells) or Wako High Sensitive Aβx-42 ELISA kit (in Rat primary cortical neuron culture). The viability of the N2A-APPswe and Primary cortical neurons were determined by MTT and LDH release assays, respectively. No significant effect of viability of the neuron […]
β-Secretase assays: Confluent N2A-APPswe cells were harvested and homogenized with 50 mM MES, pH5.5. […] The β-secretase activities were assayed by adding 10 µM fluorogenic β-secretase substrate (Millipore) to the reaction mixtures and the fluorescence (excitation, 380; emission, 460) were measured. β-Secretase assays were also performed using purified BACE1 (Millipore) at 100 ng in a buffer containing 50 mM MES, pH 5.5. […]

C[C@H](NC(=O)Cc1cc(F)cc(F)c1)C(=O)N[C@H](C(=O)OC(C)(C)C)c1ccccc1 [DAPT]
production of NICD: completely blocked
